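Protocol summary: plate cells (96-well), add compound at 5 concentrations, incubate 48 h, interpolate endpoints linearly. GI50 = concentration required for 50% inhibition of growth.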 Calls of active or inactive are those of the source. Rule as the data show it: active = GI50 up to about 1.1 µM and inactive = higher.

Results on 14 compounds are retold here after ChEMBL document CHEMBL1201862, “PubChem BioAssay data set” (2004).

What all share (test): NCI-60 cell line screen, 48 h
In test [1] the test system is KM-20L2.
The test system of test [2] is DMS-114.
Test [3] concerns XF498.
Test [4] deals with RXF 631.
The test system of test [5] is M19-MEL.
Test [6] relates to HOP-18.
Test [7] concerns SNB-78.
Test [8] relates to DLD-1.
For test [9], the system named is MDA-N.

Consider `COC(=O)C1=C(C=O)C2C=CC1C2` (centres undefined), for which the GI50 was > 63 µM (inactive) in [1]; > 57.7 µM (inactive) in test [2]; 27.2 µM (inactive) in [3]; > 100 µM (inactive) in test [4]; > 45 µM (inactive) in [5]; 30.5 µM (inactive) in test [6]. Moreover, the GI50 is 74.1 µM (inactive) in [7], 27.9 µM (inactive) in [8] and > 100 µM (inactive) in [9].
As to `O=C(CCn1[nH]c(=O)c(Cl)c(Cl)c1=O)NNC(=O)C[n+]1ccccc1`, the GI50 in test [1], in test [2], in test [3], in test [4], in test [5] and in [6] was > 100 µM (inactive) in each case. Also, in [8], the GI50 is > 100 µM (inactive).
Consider `CC(Oc1ccc2cc(C(=O)c3ccccc3)c(=O)oc2c1)C(=O)O` (centres undefined), for which the GI50 in [1], in [2], in [3], in test [4], in test [5] and in test [6] was > 100 µM (inactive) throughout. Moreover, the GI50 in [7] is > 100 µM (inactive).
`COc1cc(C[C@H]2c3cc(OC)c(OC)cc3CCN2C)c(Oc2cc3c(cc2OC)-c2c(OC)c(OC)cc4c2[C@H](C3)N(C)CC4)cc1OC` [THALICARPINE]: the GI50 in test [1] was 4.53 µM (inactive); in test [2], 9.1 µM (inactive); in [3], 8.97 µM (inactive); in [4] it was 5.52 µM (inactive); in test [5], 8.87 µM (inactive); in [8], 15.1 µM (inactive). The GI50 in test [9] was 4.13 µM (inactive).
For the compound `CC(C)(C)C#C[P+](c1ccccc1)(c1ccccc1)c1ccccc1`, the GI50 in test [1] was 0.345 µM (active); in test [4], 1 µM (active); in test [6], 0.855 µM (active); in test [7] it was 0.339 µM (active); in test [8], 0.191 µM (active).
Consider `Cn1nc(-c2ccccc2)c(C(=O)/C=C/c2ccc(F)cc2)c(N2CCCCC2)c1=O`, for which the GI50 is 5.18 µM (inactive) in [1]; 3.86 µM (inactive) in test [2]; 21.1 µM (inactive) in test [3]; 8.61 µM (inactive) in test [4]; 8.36 µM (inactive) in [5]; 5.66 µM (inactive) in [6]. Moreover, the GI50 in test [8] was 3.61 µM (inactive).
Consider `Cc1cc(=O)oc2cc(OCCCOc3ccc4c(C)cc(=O)oc4c3)ccc12`, for which the GI50 in test [1] is > 100 µM (inactive); in [2] it was > 100 µM (inactive); in test [3], 31.3 µM (inactive); in test [4], > 100 µM (inactive); in test [5], > 100 µM (inactive); in test [8], > 100 µM (inactive).
Take `COc1ccc(Cc2nc3ccccc3s2)cc1OC`: the GI50 in [1] was 19.3 µM (inactive); in [2] it was 15.7 µM (inactive); in [3], 15.3 µM (inactive); in [4] it was 17.7 µM (inactive); in test [5], 15.6 µM (inactive); in test [6], 23.9 µM (inactive). Besides, the figures for the GI50 in test [7] and in test [8] were 19.8 µM (inactive) and 16.6 µM (inactive), respectively.
With `O=c1[nH]c(-c2ccccc2)nc2cc(Cl)ccc12`, the GI50 in test [1], in test [2], in test [3], in [4], in test [5] and in [7] was > 100 µM (inactive) in each case. In addition, the GI50 in test [8] was > 100 µM (inactive).
On to `CCOC(=O)Cc1nc2ccccc2s1`, for which the GI50 was 27.6 µM (inactive) in test [1]; 14.8 µM (inactive) in test [3]; 16.8 µM (inactive) in test [4]; 18.4 µM (inactive) in test [5]; 24.8 µM (inactive) in test [6]; 18.1 µM (inactive) in test [7]. For the same compound, the GI50 in [8] is 16.6 µM (inactive).
As for `COC(=O)C1CC/C(=N/c2ccc(C)cc2C)N1` (centres undefined), the GI50 in test [1], in test [3], in test [4], in test [5], in test [6] and in test [7] was > 100 µM (inactive) in each case. Moreover, the GI50 in test [8] is > 100 µM (inactive).
Take `O=c1[nH]cc(C(F)(C(F)(F)F)C(F)(F)F)c(=O)[nH]1`: the GI50 in [1], in [2], in test [3], in test [4], in test [5] and in test [6] was > 100 µM (inactive) in each case. The GI50 in test [7] and in [8] was > 100 µM (inactive) throughout.
For the compound `COc1ccc2nc3c(c(NCCCN(C)C)c2c1)CCCC3`, the GI50 in test [1] is 6.7 µM (inactive); in test [2], 13.9 µM (inactive); in test [3], 4.15 µM (inactive); in test [4], 14.9 µM (inactive); in test [5], 17.1 µM (inactive); in test [7], 7.83 µM (inactive). In addition, in test [8], the GI50 was 7.66 µM (inactive).
Take `CCCCCCCCCCCCCCCC(=O)OCCOCCOCCOCCOCCOC(=O)CCCCCCCCCCCCCCC`: the GI50 in test [1], in test [2], in [4], in test [5], in test [6] and in test [7] was > 100 µM (inactive) each time. Besides, in test [8], the GI50 was > 100 µM (inactive).
